Results from the supplement of paper PMC11208160.

Test: recombinant barcode read abundance after kanamycin selection (control-corrected) (log10(CPM+1)); higher = more efficient recombination; sequences stand for … in AGTGCAGAGAAAATCGGCCAGTTTTCTCTGCCTGCAGTCCGCATGCCGT…AGATTTATGCAGCGGACTGCCTTTCTCCCAAAGTGATAAACCGGACAGTATCATGGACCGGTTTTCCCGGTAATCCGTATTTGCAAGGTTGGTTTCACT; site = the 11-nt target
In short: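 A vector carrying a T7-inducible recombinase and the last 73 bp of the bridge RNA received, by Gibson cloning, oligos encoding a promoter, target, barcode and the first 104 bridge RNA bases under J23119. The pooled constructs entered E. coli together with a donor plasmid by electroporation. Selection used chloramphenicol/ampicillin/kanamycin with 0.1 mM IPTG, with chloramphenicol/ampicillin LB agar as the control, each in two replicates. Recombination efficiency is the averaged, control-corrected counts-per-million of barcodes at recombinant junctions, reported as log10(CPM+1).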
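Also: IS621 recombinase and bridge RNA in Escherichia coli cells.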

Sequence | recombinant barcode read abundance (log10)
CTCGGTACTTGGGTTCTAACCTGTTGCCA (site CTCGGTACTTG) | 0.489
CTCGGTACTTGGGTTCTAACCTGTTGCCA (site CTCGGTTCTAG) | 0.0612
CTCGGTGCTTGGGTTCTAACCTGTTGCCT (site CACGGTCCTAG) | 0.118
CTCGGTGCTTGGGTTCTAACCTGTTGCCT (site CTCGGTGCTAG) | 1.15
CTCGTGTCTTGGGTTCTAACCTGTTGCAG (site CTCGTGTCTCT) | 1.95
CTCGTGTCTTGGGTTCTAACCTGTTGCAG (site CTCTTGTCTCA) | 0.0182
CTCGTGTCTTGGGTTCTAACCTGTTGCAT (site AGAACTACTTG) | 0.00883
CTCGTGTCTTGGGTTCTAACCTGTTGCAT (site CTCGTGTCTAT) | 2.88
CTCTACACTTGGGTTCTAACCTGTTGCCA (site CTCTAAACTTG) | 0.0347
CTCTACACTTGGGTTCTAACCTGTTGCCA (site CTCTACACTTG) | 0.879
CTCTACACTTGGGTTCTAACCTGTTGCCA (site CTCTAGACTTG) | 0.161
CTCTACACTTGGGTTCTAACCTGTTGCCA (site CTCTATACTTG) | 0.0697
CTCTACCCTTGGGTTCTAACCTGTTGCAG (site AGAGCGACTTA) | 0.0772
CTCTACCCTTGGGTTCTAACCTGTTGCAG (site CTCTACCCTCT) | 1.9
CTCTACTCTTGGGTTCTAACCTGTTGCGT (site CTCTACTCTAC) | 0.529
CTCTACTCTTGGGTTCTAACCTGTTGCGT (site TGACCTACTTG) | 0.0348
CTCTAGACTTGGGTTCTAACCTGTTGCCA (site CTCTAAACTTG) | 0.193
CTCTAGACTTGGGTTCTAACCTGTTGCCA (site CTCTACACTTG) | 0.0305
CTCTAGACTTGGGTTCTAACCTGTTGCCA (site CTCTAGACTTG) | 0.69
CTCTAGACTTGGGTTCTAACCTGTTGCCA (site CTCTATACTTG) | 0.0325
CTCTAGCCTTGGGTTCTAACCTGTTGCGT (site CTCTAACCTAC) | 1.38
CTCTAGCCTTGGGTTCTAACCTGTTGCGT (site CTCTACCCTAC) | 0.178

Sequence | recombinant barcode read abundance (log10)
CTCTAGCCTTGGGTTCTAACCTGTTGCGT (site CTCTAGCCTAC) | 1.25
CTCTAGCCTTGGGTTCTAACCTGTTGCGT (site CTCTATCCTAC) | 0.0754
CTCTAGTCTTGGGTTCTAACCTGTTGCCT (site CTCTAGTCTAA) | 0.0156
CTCTAGTCTTGGGTTCTAACCTGTTGCCT (site CTCTAGTCTAC) | 0.792
CTCTAGTCTTGGGTTCTAACCTGTTGCCT (site CTCTAGTCTAG) | 0.154
CTCTAGTCTTGGGTTCTAACCTGTTGCCT (site CTCTAGTCTAT) | 0.526
CTCTATACTTGGGTTCTAACCTGTTGCCA (site CTCTAAACTTG) | 0.0863
CTCTATACTTGGGTTCTAACCTGTTGCCA (site CTCTACACTTG) | 0.102
CTCTATACTTGGGTTCTAACCTGTTGCCA (site CTCTAGACTTG) | 0.511
CTCTATACTTGGGTTCTAACCTGTTGCCA (site CTCTATACTTG) | 0.0112
CTCTATCCTTGGGTTCTAACCTGTTGCGT (site CTCTAACCTAC) | 0.526
CTCTATCCTTGGGTTCTAACCTGTTGCGT (site CTCTACCCTAC) | 0.218
CTCTATCCTTGGGTTCTAACCTGTTGCGT (site CTCTAGCCTAC) | 0.376
CTCTATCCTTGGGTTCTAACCTGTTGCGT (site CTCTATCCTAC) | 0.551
CTCTCGTCTTGGGTTCTAACCTGTTGCGT (site CTCTCGTCTAA) | 0.0993
CTCTCGTCTTGGGTTCTAACCTGTTGCGT (site CTCTCGTCTAC) | 1.19
CTCTCGTCTTGGGTTCTAACCTGTTGCGT (site CTCTCGTCTAG) | 0.291
CTCTCGTCTTGGGTTCTAACCTGTTGCGT (site CTCTCGTCTAT) | 0.0817
CTCTCTCCTTGGGTTCTAACCTGTTGCCT (site CTCTCTCCTAG) | 0.261
CTCTCTCCTTGGGTTCTAACCTGTTGCCT (site CTCTCTTCTAG) | 0.148
CTCTGGACTTGGGTTCTAACCTGTTGCAC (site CTCTGGACTGT) | 0.64
CTCTGGACTTGGGTTCTAACCTGTTGCAC (site CTGTGGACTCT) | 0.058

Sequence | recombinant barcode read abundance (log10)
CTCTGGGCTTGGGTTCTAACCTGTTGCCT (site CTCTAGGCTAG) | 0.179
CTCTGGGCTTGGGTTCTAACCTGTTGCCT (site CTCTCGGCTAG) | 0.29
CTCTGGGCTTGGGTTCTAACCTGTTGCCT (site CTCTGGGCTAG) | 0.15
CTCTGGGCTTGGGTTCTAACCTGTTGCCT (site CTCTTGGCTAG) | 0.198
CTCTTGGCTTGGGTTCTAACCTGTTGCCT (site CTCTAGGCTAG) | 0.261
CTCTTGGCTTGGGTTCTAACCTGTTGCCT (site CTCTCGGCTAG) | 0.139
CTCTTGGCTTGGGTTCTAACCTGTTGCCT (site CTCTGGGCTAG) | 0.0739
CTCTTGGCTTGGGTTCTAACCTGTTGCCT (site CTCTTGGCTAG) | 0.0663
CTCTTGTCTTGGGTTCTAACCTGTTGCCA (site CGCTTGTCTCG) | 0.391
CTCTTGTCTTGGGTTCTAACCTGTTGCCA (site CTCTTGTCTTG) | 0
CTGAGCCCTTGGGTTCTAACCTGTTGCCT (site CTGAGCCCTAG) | 0.6
CTGAGCCCTTGGGTTCTAACCTGTTGCCT (site CTGCGCCCTAG) | 0.448
CTGAGCCCTTGGGTTCTAACCTGTTGCCT (site CTGGGCCCTAG) | 0.354
CTGAGCCCTTGGGTTCTAACCTGTTGCCT (site CTGTGCCCTAG) | 0.0331
CTGAGCCCTTGGGTTCTAACCTGTTGCTG (site CAGAGCCCTCA) | 0.327
CTGAGCCCTTGGGTTCTAACCTGTTGCTG (site CTGAGCCCTCA) | 1.5
CTGCACCCTTGGGTTCTAACCTGTTGCCT (site CGCCACCCTAG) | 0.411
CTGCACCCTTGGGTTCTAACCTGTTGCCT (site CTGCACCCTAG) | 1.57
CTGCTGTCTTGGGTTCTAACCTGTTGCCA (site CTGATGTCTTG) | 0.154
CTGCTGTCTTGGGTTCTAACCTGTTGCCA (site CTGCTGTCTTG) | 0.095
CTGCTGTCTTGGGTTCTAACCTGTTGCCA (site CTGGTGTCTTG) | 0.402
CTGCTGTCTTGGGTTCTAACCTGTTGCCA (site CTGTTGTCTTG) | 0.0953

Sequence | recombinant barcode read abundance (log10)
CTGGATCCTTGGGTTCTAACCTGTTGCCT (site CTCGACCCTAG) | 0.0729
CTGGATCCTTGGGTTCTAACCTGTTGCCT (site CTGGATCCTAG) | 2.25
CTGGGCTCTTGGGTTCTAACCTGTTGCCA (site CTGGGCTCTTG) | 1.14
CTGGGCTCTTGGGTTCTAACCTGTTGCCA (site GTGGGCTCTAG) | 0.282
CTGGGTTCTTGGGTTCTAACCTGTTGCCT (site CAGGGTTCTAG) | 0.0887
CTGGGTTCTTGGGTTCTAACCTGTTGCCT (site CCGGGTTCTAG) | 0.138
CTGGGTTCTTGGGTTCTAACCTGTTGCCT (site CGGGGTTCTAG) | 0.312
CTGGGTTCTTGGGTTCTAACCTGTTGCCT (site CTGGGTTCTAG) | 0.17
CTGGTCACTTGGGTTCTAACCTGTTGCGG (site CTAGACACTCC) | 0.11
CTGGTCACTTGGGTTCTAACCTGTTGCGG (site CTGGTCACTCC) | 2.74
CTGGTCCCTTGGGTTCTAACCTGTTGCGG (site CTGATCCCTCC) | 0.983
CTGGTCCCTTGGGTTCTAACCTGTTGCGG (site CTGCTCCCTCC) | 0.0151
CTGGTCCCTTGGGTTCTAACCTGTTGCGG (site CTGGTCCCTCC) | 2.72
CTGGTCCCTTGGGTTCTAACCTGTTGCGG (site CTGTTCCCTCC) | 0.151
CTGTCTCCTTGGGTTCTAACCTGTTGCGT (site AGAAGCACTTG) | 0.11
CTGTCTCCTTGGGTTCTAACCTGTTGCGT (site CTGTCTCCTAC) | 0.833
CTGTGGACTTGGGTTCTAACCTGTTGCAG (site CTCTGGACTGT) | 0
CTGTGGACTTGGGTTCTAACCTGTTGCAG (site CTGTGGACTCT) | 1.13
CTGTTATCTTGGGTTCTAACCTGTTGCCT (site CTATTATCTAG) | 0.127
CTGTTATCTTGGGTTCTAACCTGTTGCCT (site CTGTTATCTAG) | 0.237
